Measured values taken from patent publication US12612408B2, “Pyrazolone-fused pyrimidine compound, preparation method for same and applications thereof” (SHANGHAI PHARMACEUTICALS HOLDING CO., LTD., priority 2019, dated 2026).
Each block holds one molecule with its values, some of them ahead of it.

Assays:
[1] = molecular target: T1, WEE1 kinase (Homo sapiens, UniProt P30291); test: Inhibitory effect of compound on WEE1 kinase in vitro (ELISA); assay type: biochemical; settings: ATP concentration of Km
T1 construct: purchased CarnaBiosciences, Inc. 05-177
T1 sequence (P30291 whole entry): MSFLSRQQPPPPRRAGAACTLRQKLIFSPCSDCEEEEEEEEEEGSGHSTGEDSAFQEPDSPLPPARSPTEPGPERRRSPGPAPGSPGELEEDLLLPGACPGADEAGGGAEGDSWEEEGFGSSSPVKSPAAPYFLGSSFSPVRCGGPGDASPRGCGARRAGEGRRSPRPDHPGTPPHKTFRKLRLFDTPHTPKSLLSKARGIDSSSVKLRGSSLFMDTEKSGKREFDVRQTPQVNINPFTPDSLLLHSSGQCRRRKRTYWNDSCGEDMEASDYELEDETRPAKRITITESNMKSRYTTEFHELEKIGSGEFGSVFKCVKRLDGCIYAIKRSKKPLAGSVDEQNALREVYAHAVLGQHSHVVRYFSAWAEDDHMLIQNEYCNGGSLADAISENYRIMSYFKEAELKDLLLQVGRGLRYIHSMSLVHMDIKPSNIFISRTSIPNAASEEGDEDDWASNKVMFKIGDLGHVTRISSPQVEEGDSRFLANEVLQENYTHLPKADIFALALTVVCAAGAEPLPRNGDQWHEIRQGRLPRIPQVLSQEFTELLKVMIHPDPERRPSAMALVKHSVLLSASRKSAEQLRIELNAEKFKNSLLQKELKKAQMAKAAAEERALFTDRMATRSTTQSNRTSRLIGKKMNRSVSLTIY
Protocol: The tested compounds were screened on WEE1 kinase with ATP concentration of Km by ELISA. Compounds were screened on WEE1 kinase to evaluate the kinase inhibitory activity of the tested compounds. In the detection process, the initial concentration of the tested compounds was all selected as 100 nM, and each compound was selected with 6 gradient dilution concentrations, the gradient dilution ratio was 4-fold, and two replicate wells were detected for each concentration, MK1775 was used as the standard control.
WEE1, purchased from CarnaBiosciences, Inc., Item No. 05-177; dimethyl sulfoxide, purchased from Sigma-Aldrich, Item No. D8418; ATP, purchased from Sigma-Aldrich, Item No. A7699; DTT solution, purchased from Sigma-Aldrich, Item No. 43816; protein tyrosine kinase (PTK) substrate (poly-Glu-Tyr), purchased from Sigma-Aldrich, Item No. P4476; P-Tyr (PY99), purchased from Santa Cruz, Item No. sc-7020; Anti-mouse IgG HRP-linked Antibody, purchased from Santa Cruz, Item No. 7076S; TMB liquid Substrate System, purchased from Sigma-Aldrich, Item No. T0440; Costar Stripwell Microplate No Lid 1×8 Flat Bottom, Certified High Binding, purchased from Sigma-Aldrich, Item No. 42592; 96-well compound plate, purchased from Thermo Scientific, Item No. 267245.
• 1. Coating substrate: 1) An appropriate volume of substrate storage solution protein tyrosine kinase (PTK) substrate (poly-Glu-Tyr) was taken, diluted 10 times with PBS, and the concentration was diluted from […]. The mixture was added to a high adsorption 96-well plate at 125 μL per well. The plate was placed in an incubator at 37° C. for overnight coating. 2) After 24 hours, the 96-well plate was taken out, the liquid in the 96-well plate was poured out, cleaned with washing buffer for 3 times, and the incubator at 37° C. was inverted and dried for 2 hours. • 2. Compound preparation and transfer: 1) compound dilution: 10 mM of the test compound storage solution was taken, the compound in 96-well compound plate was diluted with DMSO in multiple steps to obtain the initial concentration of 100× compound as the first concentration, and then DMSO was used for 4-fold gradient dilution, for a total of 6 concentrations; after that, 2 μL of the gradient dilution solution was added to 48 μL of 1× reaction buffer respectively to prepare 4× compound; 2) 4× compounds were transferred: 10 μL of 4× compounds from the 96-well compound plate configured in the previous step were transferred into the dried high adsorption 96-well plate; 10 μL of the following liquids were added to the compound-free control wells and ATP-control wells: 2 μL of DMSO was added to 48 μL of 1× reaction buffer. • 3. Enzyme reaction stage: 1) WEE1 kinase and ATP were prepared into 2× enzyme solution and 4×ATP solution respectively with 1× reaction buffer. In this screening, the final concentration of WEE1 kinase was: 0.15 ng/μL and the final concentration of ATP was: […]; 2) 20 μL of enzyme solution of 2 was added to the high adsorption 96-well plate; 3) 10 μL of 4×ATP solution was added to the high adsorption 96-well plate and 10 μL of 1× reaction buffer was added to the ATP-control group; 4) the plate was placed in HERAEUS Multifuge X1R centrifuge at 2000 rpm for 20 s and then placed at room temperature and reacted for 60 min. • 4. Reaction termination stage: 1) the reaction mixture in the plate was poured out, 200 μL of washing buffer was added to each well, and washed for 5 times; the primary antibody P-Tyr (PY99) (dilution ratio 1:2000) was added, 100 μL per well, at room temperature for 30 min. 2) The primary antibody in the plate was poured out, 200 μL of washing buffer was added to each well, and washed for 5 times; the second antibody Anti-mouse IgG HRP-linked Antibody (dilution ratio 1:2000) was added, 100 μL per well, at room temperature for 30 min.

[2] = Bioavailability test in vivo in mice (pharmacokinetics, iv and intragastric); set-up: species or system ICR mice
Protocol: 404.6 μL of DMSO was added to the compound powder of the present disclosure until the compound was completely dissolved, and 50 mg/mL mother liquor was prepared in a clarified state.
The compound of the present disclosure: 24 μL of mother liquor was accurately measured, diluted to 4 mL according to the ratio of 0.9% normal saline:PEG400=8:2, the preparation concentration was 0.3 mg/mL, the solution was in a clarified state, and it was used as intravenous administration solution. In addition, 80 μL mother liquor was accurately measured, and 0.5% CMC-Na was added to 8 mL to grind it into a uniform suspension with a concentration of 0.5 mg/mL, which was used as intragastric administration solution.
(§1) Intravenous group: 24 ICR mice, 20±2 g, were given the intravenous administration solution of the compound of the present disclosure by intravenous injection, with the volume of 10 mL/kg, with the dose of 3 mg/kg, the blood was taken from the fundus venous plexus of mice, 2, 5, 15, 30, 60, 90, 120, 240, 360, 480, 600 and 1440 minutes before and after administration.
as §1, with “Intragastric group:” for “Intravenous group:”, “the intragastric” for “the intravenous”, “by intragastric” for “by intravenous”, “of 20” for “of 10”, “of 10” for “of 3”, “mice,” for “mice, 2,”
Blood sample was centrifuged at 8000 rpm for 5 min, and the plasma was stored in a centrifuge tube at −20° C. for later use.
300 μL of acetonitrile containing internal standard (Propranolol, 25 ng/mL) was added to 50 μL of plasma samples to precipitate protein, vortexed for 10 min, 6000 g, 4° C., centrifuged for 10 min; the supernatant before intravenous injection for 1 hour was taken, diluted 10 times with acetonitrile containing internal standard, the rest supernatant was kept undiluted, centrifuged for 10 min again at 6000 g, 4° C., and the supernatant was taken and then injected into a 96-well plate.
(§2) Dose; peak concentration: Cmax; peak time: Tmax; area under the drug-time curve from AUClast 0 to time t; half-life: T1/2; mean retention time: MRT; clearance: Cl; apparent distribution volume: Vz; steady-state distributed volume: Vss; absolute bioavailability: F.
The pharmacokinetic parameters of the compound in mice after intravenous injection or intragastric administration were shown in Table 4 and Table 5 below.

[3] = Bioavailability test in vivo in cynomolgus monkey (pharmacokinetics, IV and PO); settings: cynomolgus monkeys
Protocol: Twelve male Non-Naïve cynomolgus monkeys were purchased from GuangxiGuidong Primate Development Experiment Co. LTD.
(§3) 54.31 mg of I-8-1 was accurately weighed, and 1.08 mL of DMSO was added, then the mixture was vortexed for 1 min, sonicated for 15 min, and then diluted to 36 mL according to the ratio of 10% HP-β-cyclodextrin (prepared by normal saline): PEG=8:2, vortexed for 1 min. A colorless clarified administration solution (the pH value was about 7) at a concentration of 1.5 mg/mL was prepared for intravenous administration to Group 1.
300.9 mg of I-8-1 was accurately weighed, and 75 mL of 0.5% CMC-Na was added, the mixture was fully ground and stirred for 5 min. A white suspension (the pH value was about 7) at a concentration of 4 mg/mL was prepared for oral administration to Group 2.
as §3, with “54.05 mg” for “54.31 mg”, “of AZD1775” for “of I-8-1”, “then he” for “then the”, “of 10%-D-cyclodextrin” for “of 10% HP-β-cyclodextrin”, “A yellow” for “A colorless”, “Group 3.” for “Group 1.”
300.7 mg of AZD1775 was accurately weighed, and 75 mL of 0.5% CMC-Na was added, the mixture was fully ground and stirred for 5 min. A yellow suspension (the pH value was about 7) at a concentration of 4 mg/mL was prepared for oral administration to Group 4.
Before administration, all animals were fasted overnight (approximately 12 hours) and fed as required and administered according to the table below.
Intravenous group: before administration (0 h), 0.033 h, 0.083 h, 0.25 h, 0.5 h, 1 h, 1.5 h, 2 h, 4 h, 6 h, 8 h, 12 h, 24 h after administration.
Oral group: before administration (0 h), 0.083 h, 0.25 h, 0.5 h, […], 2 h, 4 h, 6 h, 8 h, 12 h, 24 h after administration.
Blood samples were collected by puncture through lower limb vein or other suitable blood vessels at 1 mL/time point (3 mL of blood samples were collected from each animal before administration), anticoagulated with heparin sodium, and placed on ice after collection. Plasma was separated at 2200 g/min, 10 min, 2-8° C., plasma samples were stored in a −80° C. refrigerator before being transferred to the client. Plasma samples are stored in dry ice and transferred to the client. The final treatment of the sample will be recorded in the experimental record.
300 μL of acetonitrile was added to 50 μL of plasma samples containing internal standard (Propranolol, 25 ng/mL) to precipitate protein, vortexed for 10 min, centrifuged at 6000 g for 10 min, after I-8-1&AZD1775 intravenous injection group was diluted 10 times with internal standard acetonitrile (Propranolol, 25 ng/mL) at the time point before 1 hour, the remaining supernatant was not diluted, centrifuged again at 6000 g at 4° C. for 10 min, and the supernatant was taken and injected into a 96 well plate.
as §2
The pharmacokinetic parameters of the compound in cynomolgus monkeys after intravenous injection or intragastric administration were shown in Table 6 below.

[4] = ICR, mouse, plasma, iv, 3 mg/kg
[5] = ICR, mouse, plasma, po (intragastric), 10 mg/kg
[6] = male, cynomolgus monkey, plasma, iv, 3 mg/kg
[7] = male, cynomolgus monkey, plasma, po, 20 mg/kg, fasted

SMILES: C=CCn1c(=O)c2cnc(Nc3ccc(C4CCC(N(C)C)CC4)cc3)nc2n1-c1cccc(C(C)(C)O)n1 (single isomer, unassigned) [Compound I-1-2]
IC50 [1]: 2.08 nM

SMILES: C=CCn1c(=O)c2cnc(Nc3ccc(C4CCC(N5CCCC5)CC4)cc3)nc2n1-c1cccc(C(C)(C)O)n1 (single isomer, unassigned) [Compound I-3-1]
IC50 [1]: 0.35 nM

SMILES: C=CCn1c(=O)c2cnc(Nc3ccc(C4CCC(N5CCCC5)CC4)cc3)nc2n1-c1cccc(C(C)(C)O)n1 (single isomer, unassigned) [Compound I-3-2]
IC50 [1]: 0.66 nM

SMILES: C=CCn1c(=O)c2cnc(Nc3ccc(C4CCC(N5CCC5)CC4)cc3)nc2n1-c1cccc(C(C)(C)O)n1 (single isomer, unassigned) [Compound I-8-2]
IC50 [1]: 3.52 nM

SMILES: C=CCn1c(=O)c2cnc(Nc3ccc(C4CCC(N(C)C)CC4)cc3)nc2n1-c1cccc(C2(O)COC2)n1 (single isomer, unassigned) [Compound I-15-1]
IC50 [1]: 1.52 nM

SMILES: C=CCn1c(=O)c2cnc(Nc3ccc(C4CCC(N5CCOCC5)CC4)cc3)nc2n1-c1cccc(C(C)(C)O)n1 (centres unmarked) [Compound I-2]
IC50 [1]: 2.57 nM

SMILES: C=CCn1c(=O)c2cnc(Nc3ccc(C4CCC(C(=O)O)CC4)cc3)nc2n1-c1cccc(C(C)(C)O)n1 (centres unmarked) [Compound I-5, 4-(4-((2-allyl-1-(6-(2-hydroxypropan-2-yl)pyridin-2-yl)-3-oxo-2,3-dihydro-1H-pyrazolo[3,4-d]pyrimidin-6-yl)amino)phenyl)cyclohexane-1-carboxylic acid]
IC50 [1]: 7.15 nM

Now from value to molecule:

IC50 [1]: 1.68 nM
SMILES: C=CCn1c(=O)c2cnc(Nc3ccc(C4CCC(N(C)C)CC4)cc3)nc2n1-c1cccc(C2(O)COC2)n1 (single isomer, unassigned) [Compound I-15-2]

IC50 [1]: 2.92 nM
SMILES: C=CCn1c(=O)c2cnc(Nc3ccc(C4CCC(N5CCC5)CC4)cc3)nc2n1-c1cccc(C2(O)COC2)n1 (single isomer, unassigned) [Compound I-36-2]

Cmax [2, 4]: 774 ± 53.8 ng/mL
MRT [2, 4]: 0.42 ± 0.02 h
Tmax [2, 4]: 0.05 ± 0.03 h
clearance [2, 4]: 183 mL/min/kg
half-life [2, 4]: 0.65 ± 0.03 h
Vd ([2]; ICR, mouse, plasma, iv, 3 mg/kg, iv, 3 mg/kg, read-out: Vss): 4.58 ± 0.44 L/kg
Vd ([2]; ICR, mouse, plasma, iv, 3 mg/kg, iv, 3 mg/kg, read-out: Vz): 10.3 ± 1.12 L/kg
bioavailability ([2]; ICR, mouse, plasma, po 10 mg/kg vs iv 3 mg/kg, read-out: F (absolute bioavailability)): 16.7%
Cmax [2, 5]: 205 ± 124 ng/mL
MRT [2, 5]: 4.33 ± 0.28 h
Tmax [2, 5]: 0.33 ± 0.14 h
half-life [2, 5]: 3.1 ± 0.22 h
AUClast ([2]; iv, 3 mg/kg): 273.1 ± 21.34 (h) (ng/mL)
AUClast ([2]; po (intragastric), 10 mg/kg): 151.7 ± 62.14 (h) (ng/mL)
AUCextra ([3]; iv, 3 mg/kg): 47.62 ± 58.18 (h)*(ng/mL)
AUClast ([3]; iv, 3 mg/kg): 4494 ± 1719 (h)*(ng/mL)
AUCtot ([3]; iv, 3 mg/kg): 4542 ± 1777 (h)*(ng/mL)
thalf ([3]; iv, 3 mg/kg): 2.78 ± 0.26 h
AUCextra ([3]; po, 20 mg/kg, fasted): 8.46 ± 1.91 (h)*(ng/mL)
AUClast ([3]; po, 20 mg/kg, fasted): 8155 ± 818.2 (h)*(ng/mL)
AUCtot ([3]; po, 20 mg/kg, fasted): 8163 ± 819.7 (h)*(ng/mL)
thalf ([3]; po, 20 mg/kg, fasted): 2.03 ± 1.22 h
Vd ([3]; male, cynomolgus monkey, plasma, iv, 3 mg/kg, iv, 3 mg/kg, read-out: Vss): 4.33 ± 0.74 L/kg
Vd ([3]; male, cynomolgus monkey, plasma, iv, 3 mg/kg, iv, 3 mg/kg, read-out: Vz): 2.84 ± 0.76 L/kg
Cmax [3, 6]: 1200 ± 134 ng/mL
MRT [3, 6]: 6.53 ± 2.51 h
Tmax [3, 6]: 2.69 ± 4.6 h
clearance [3, 6]: 12 mL/min/kg
bioavailability ([3]; male, cynomolgus monkey, plasma, po 20 mg/kg vs iv 3 mg/kg, read-out: BA (absolute bioavailability)): 27.2%
Cmax [3, 7]: 1630 ng/mL
MRT [3, 7]: 3.58 ± 0.07 h
Tmax [3, 7]: 2 h
SMILES: C=CCn1c(=O)c2cnc(Nc3ccc(N4CCN(C)CC4)cc3)nc2n1-c1cccc(C(C)(C)O)n1 [Control 1, reference compound]
